# Source: US20100004266A1, “Salt or Solvate of 5-Methyl-2(Piperazin-1-Yl)Benzenesulfonic Acid” (Mitsubishi Tanabe Pharma Corporation, priority 2006, published 2010)
# Tests used:
# cardiomyocytes = conditions: cited from earlier work
# [1] = Thermal analysis (DSC) of the crystals; assay type: physicochemical; conditions: 25-300° C., 20° C./min, dry nitrogen gas 50 mL/min
# Method: For thermal analysis, the measurement was performed in a dry nitrogen gas stream (50 mL/min) from 25° C. to 300° C. at a temperature rise rate of 20° C./min.
# For identification of the solvate form of the present invention, a powder X-ray diffraction apparatus (manufactured by Bruker) GADDS detector system and a thermal analysis equipment (manufactured by Mettler-Toledo) DSC822e system were used. The powder X-ray diffraction pattern was measured at room temperature using CuKα as a monochromator within the 2θ angle range of 1.5-41.5°. The thermal analysis was performed in a dry nitrogen gas stream (50 mL/min) from 25° C. to 300° C. at a temperature rise rate of 20° C./min.
# Using the white solids obtained in Examples 1 and 2 as sample 1 (hydrochloride salt) and sample 2 (calcium salt), respectively, the thermal analysis was performed under the following conditions.
# apparatus: DSC822e manufactured by Metter-Toledo temperature rise rate: 20° C./min atmosphere: dry nitrogen gas 50 mL/min measurement temperature: 25-300° C.
# Using the solid obtained in Example 3 as sample 3 (2,2,2-[…] hydrate crystal), the thermal analysis was performed under the following conditions.
Compound,excessive influx of calcium ions into cardiomyocytes (cardiomyocytes),crystal stability by thermal analysis [1],no noticeable endothermic and exothermic peaks up to (temperature) [1]
"Cc1ccc(N2CCNCC2)c(S(=O)(=O)O)c1 [compound A, 5-methyl-2-(piperazin-1-yl)benzenesulfonic acid]",remarkably suppresses,,
Calcium 5-methyl-2-(piperazin-1-yl)benzenesulfonate [sample 2],,stable,200 °C
"Cc1ccc(N2CCNCC2)c(S(=O)(=O)O)c1.OCC(F)(F)F [Sample 3, 5-methyl-2-(piperazin-1-yl)benzenesulfonic acid 2,2,2-tetrafluoroethanolate]",,stable,around 80 °C
"Cc1ccc(N2CCNCC2)c(S(=O)(=O)O)c1.Cl [sample 1, 5-methyl-2-(piperazin-1-yl)benzenesulfonic acid hydrochloride]",,stable,200 °C
